The text below walks through data of PubChem BioAssay AID248 (DTP/NCI, 2004).

This experiment deals with L1210 leukemia ip in BDF1 mice, survival T/C. As to the kind of experiment: NCI In Vivo Anticancer Drug Screen. Data for tumor model L1210 Leukemia (intraperitoneal) in B6D2F1 (BDF1) mice. The settings on record: endpoint: mean survival time, higher = longer survival. The procedure, abridged: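 Tumor was transplanted into mice, which were then dosed with test compound or vehicle alone. Survival was recorded for each group, and the treated figure was expressed relative to the control figure.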

The mark [1] stands for this setting: dose: 100.0 mg/kg/injection, schedule: Q01DX009 (ip), vehicle: Klucel (hydroxypropylcellulose) (HPC).
[2] abbreviates: dose: 200.0 mg/kg/injection, schedule: Q01DX009 (ip), vehicle: Klucel (hydroxypropylcellulose) (HPC).
Where [3] appears, read: dose: 100.0 mg/kg/injection, schedule: Q04DX003 (ip), vehicle: saline.
Setting [4] is: dose: 200.0 mg/kg/injection, schedule: Q04DX003 (ip), vehicle: saline.
Setting [5] is: dose: 100.0 mg/kg/injection, schedule: Q01DX001 (ip), vehicle: saline.
[6] abbreviates: dose: 200.0 mg/kg/injection, schedule: Q01DX001 (ip), vehicle: saline.
Setting [7] is: dose: 400.0 mg/kg/injection, schedule: Q01DX001 (ip), vehicle: saline.

“And” between values parts separate entries of the source, which are not always exact repeats. Identical values can stand only once. Inconclusive results and toxic doses are left out.

In the case of `CCCCCCC[n+]1ccc(C(=O)c2ccccc2)cc1`, the T/C (dose: 75.0 mg/kg/injection, schedule: Q01DX001 (ip), vehicle: carboxymethylcellulose (CMC)) is 96 % of control and the T/C (dose: 300.0 mg/kg/injection, schedule: Q01DX001 (ip), vehicle: carboxymethylcellulose (CMC)) was 105 % of control.
Turning to `C1=CCC2OC2C1` (configuration not stated), the T/C reads like this: (dose: 100.0 mg/kg/injection, schedule: Q01DX001 (ip), vehicle: acetone) 103 % of control; under setting [1], 105 % of control; (dose: 200.0 mg/kg/injection, schedule: Q01DX001 (ip), vehicle: acetone) 95 % of control; under setting [2], 103 % of control; (dose: 400.0 mg/kg/injection, schedule: Q01DX001 (ip), vehicle: acetone) 94 % of control.
Take `CC[n+]1ccc(-c2ccc(NC(=O)c3ccc(C(=O)Nc4ccc(-c5cc[n+](CC)cc5)cc4)cc3)cc2)cc1`: the T/C by setting is: (dose: 2.5 mg/kg/injection, schedule: Q01DX015 (ip), vehicle: carboxymethylcellulose (CMC)) 224 % of control; (dose: 3.7 mg/kg/injection, schedule: Q01DX001 (ip), vehicle: carboxymethylcellulose (CMC)) 118 % of control; (dose: 5.0 mg/kg/injection, schedule: Q01DX015 (ip), vehicle: carboxymethylcellulose (CMC)) 157 % of control; (dose: 7.5 mg/kg/injection, schedule: Q01DX001 (ip), vehicle: carboxymethylcellulose (CMC)) 176 % of control; (dose: 10.0 mg/kg/injection, schedule: Q01DX015 (ip), vehicle: carboxymethylcellulose (CMC)) 123 % of control; (dose: 15.0 mg/kg/injection, schedule: Q01DX001 (ip), vehicle: carboxymethylcellulose (CMC)) 163 % of control. Further, the T/C runs as follows: (dose: 20.0 mg/kg/injection, schedule: Q01DX015 (ip), vehicle: carboxymethylcellulose (CMC)) 94 % of control; (dose: 30.0 mg/kg/injection, schedule: Q01DX001 (ip), vehicle: carboxymethylcellulose (CMC)) 177 % of control and 194 % of control; (dose: 30.0 mg/kg/injection, schedule: Q01DX015 (ip), vehicle: carboxymethylcellulose (CMC)) 86 % of control; (dose: 40.0 mg/kg/injection, schedule: Q01DX001 (ip), vehicle: carboxymethylcellulose (CMC)) 192 % of control and 296 % of control; (dose: 60.0 mg/kg/injection, schedule: Q01DX001 (ip), vehicle: carboxymethylcellulose (CMC)) 211 % of control and 305 % of control and 307 % of control; (dose: 90.0 mg/kg/injection, schedule: Q01DX001 (ip), vehicle: carboxymethylcellulose (CMC)) 157 % of control and 228 % of control. The T/C was 103 % of control (dose: 150.0 mg/kg/injection, schedule: Q01DX001 (ip), vehicle: carboxymethylcellulose (CMC)) and 91 % of control (dose: 225.0 mg/kg/injection, schedule: Q01DX001 (ip), vehicle: carboxymethylcellulose (CMC)).
With `C[N+](C)(C)CCCOC(=O)C1C2CC3OC(=O)C1C3C2` (configuration not stated), the T/C is 101 % of control under setting [3] and 96 % of control under setting [4].
With `CC(=O)C(Cc1ccc(CC(C(C)=O)C(C)=O)cc1)C(C)=O`, the T/C (dose: 100.0 mg/kg/injection, schedule: Q04DX003 (ip), vehicle: saline with Tween-80) was 100 % of control; the T/C (dose: 200.0 mg/kg/injection, schedule: Q04DX003 (ip), vehicle: saline with Tween-80) was 91 % of control; the T/C (dose: 400.0 mg/kg/injection, schedule: Q04DX003 (ip), vehicle: saline with Tween-80) was 100 % of control.
As to `N#Cc1cccnc1Cl`, the T/C (dose: 100.0 mg/kg/injection, schedule: Q01DX001 (ip), vehicle: Klucel (hydroxypropylcellulose) (HPC)) is 100 % of control; the T/C (dose: 100.0 mg/kg/injection, schedule: Q04DX003 (ip), vehicle: Klucel (hydroxypropylcellulose) (HPC)) was 96 % of control; the T/C (dose: 200.0 mg/kg/injection, schedule: Q01DX001 (ip), vehicle: Klucel (hydroxypropylcellulose) (HPC)) was 94 % of control; the T/C (dose: 200.0 mg/kg/injection, schedule: Q04DX003 (ip), vehicle: Klucel (hydroxypropylcellulose) (HPC)) was 87 % of control; the T/C (dose: 400.0 mg/kg/injection, schedule: Q01DX001 (ip), vehicle: Klucel (hydroxypropylcellulose) (HPC)) was 100 % of control; the T/C (dose: 400.0 mg/kg/injection, schedule: Q04DX003 (ip), vehicle: Klucel (hydroxypropylcellulose) (HPC)) is 99 % of control.
`CCN(CC)c1ccc(NC(=S)Nc2cccc(C(F)(F)F)c2)c(C)c1`: the T/C is 93 % of control under setting [1] and 90 % of control under setting [2].
Take `COc1ccc2c3c(ccc2c1)NC(C(=O)O)CC3` (configuration not stated): the T/C is 97 % of control under setting [1]; 96 % of control under setting [2]; 96 % of control (dose: 400.0 mg/kg/injection, schedule: Q01DX009 (ip), vehicle: Klucel (hydroxypropylcellulose) (HPC)).
In the case of `CCOC(Nc1ccc(Cl)cc1Cl)C(=O)c1ccccc1` (configuration not stated), the T/C is 97 % of control under setting [5], 101 % of control under setting [6] and 101 % of control under setting [7].
Consider `O=C(NCCBr)OCc1ccccc1`, for which the T/C was 98 % of control (dose: 50.0 mg/kg/injection, schedule: Q04DX003 (ip), vehicle: saline); 98 % of control under setting [3]; 101 % of control under setting [4].
With `COC(=O)C12OCC34C(CC5C(C)=C(O)C(=O)CC5(C)C3C(O)C1O)OC(=O)C(OC(=O)/C=C(\C)C(C)(C)O)C24` (configuration not stated), the T/C was 116 % of control (dose: 0.06 mg/kg/injection, schedule: Q01DX009 (ip), vehicle: saline with Tween-80); 112 % of control (dose: 0.5 mg/kg/injection, schedule: Q01DX009 (ip), vehicle: saline with Tween-80); 105 % of control (dose: 1.0 mg/kg/injection, schedule: Q01DX009 (ip), vehicle: saline with Tween-80); 107 % of control (dose: 2.0 mg/kg/injection, schedule: Q01DX009 (ip), vehicle: saline with Tween-80).
With `COc1ccc([I+]c2ccccc2C(=O)[O-])cc1OC`, the T/C by setting is: (dose: 50.0 mg/kg/injection, schedule: Q01DX001 (ip), vehicle: saline) 98 % of control; under setting [5], 96 % of control; under setting [6], 104 % of control; under setting [7], 98 % of control.
As to `COc1ccc(C(SCC(N)C(=O)O)(c2ccccc2)c2ccc(OC)cc2)cc1` (configuration not stated), the T/C (dose: 3.13 mg/kg/injection, schedule: Q01DX009 (ip), vehicle: saline) is 98 % of control; the T/C (dose: 6.25 mg/kg/injection, schedule: Q01DX009 (ip), vehicle: saline) is 120 % of control; the T/C (dose: 6.3 mg/kg/injection, schedule: Q01DX009 (ip), vehicle: other) was 110 % of control; the T/C (dose: 12.5 mg/kg/injection, schedule: Q01DX009 (ip), vehicle: other) is 117 % of control; the T/C (dose: 25.0 mg/kg/injection, schedule: Q01DX009 (ip), vehicle: saline) was 158 % of control; the T/C (dose: 50.0 mg/kg/injection, schedule: Q01DX009 (ip), vehicle: saline) was 96 % of control.
With `O=S(=O)(/C(=C\c1ccccc1)c1ccccc1)c1ccccc1`, the T/C by setting is: under setting [5], 90 % of control; under setting [6], 93 % of control; under setting [7], 93 % of control.
`O=C(/C=C/c1ccccc1Cl)NCC(O)CO` (configuration not stated): the T/C (dose: 100.0 mg/kg/injection, schedule: Q04DX003 (ip), vehicle: other) is 108 % of control; the T/C (dose: 200.0 mg/kg/injection, schedule: Q04DX003 (ip), vehicle: other) is 109 % of control; the T/C (dose: 400.0 mg/kg/injection, schedule: Q04DX003 (ip), vehicle: other) is 109 % of control.
Turning to `CCOC(=O)C(Cc1ccccc1)N=NNc1nc[nH]c1C(N)=O` (configuration not stated), the T/C was 96 % of control (dose: 375.0 mg/kg/injection, schedule: Q01DX001 (ip), vehicle: carboxymethylcellulose (CMC)) and 106 % of control (dose: 500.0 mg/kg/injection, schedule: Q01DX001 (ip), vehicle: carboxymethylcellulose (CMC)).
As for `CCC1CN2N=Cc3ccccc3C2=N1` (configuration not stated), the T/C is 105 % of control (dose: 10.0 mg/kg/injection, schedule: Q01DX001 (ip), vehicle: saline) and 103 % of control (dose: 20.0 mg/kg/injection, schedule: Q01DX001 (ip), vehicle: saline).
